US20030181447A1, “3-(Diarylmethylene)-8-azabicyclo[3.2.1]octane derivatives” (priority 2001, published 2003)
Counter-ions that a name gives are not always drawn.

Columns and labels:
[1] = test system: mouse acetylcholine bromide-induced abdominal constriction; test: Mouse acetylcholine bromide-induced abdominal constriction assay; assay type: in vivo; conditions: 150 μmole/Kg p.o., 30 min before 5.5 mg/kg acetylcholine bromide i.p.
Method: Mouse Acetylcholine Bromide-Induced Abdominal Constriction Assay
The mouse acetylcholine-induced abdominal constriction assay (as described by Collier et al. in Brit. J. Pharmacol. Chem. Ther., 1968, 32: 295-310 with minor modifications) was used to assess analgesic potency of the compounds of formula (I). The test drugs or appropriate vehicles were administered orally (p.o.) and 30 min later the animal received an intraperitoneal (i.p.) injection of 5.5 mg/kg acetylcholine bromide (Matheson, Coleman and Bell, East Rutherford, N.J.). The mice were then placed in groups of three into glass bell jars and observed for a ten min observation period for the occurrence of an abdominal constriction response (defined as a wave of constriction and elongation passing caudally along the abdominal wall, accompanied by a twisting of the trunk and followed by extension of the hind limbs). For compounds of the present invention, the percent inhibition of this response to a nociceptive stimulus (equated to % analgesia) was calculated as follows: [formula]

| melting point | Structure (SMILES) | percent inhibition of abdominal constriction response (% analgesia) [1] [%] |
| --- | --- | --- |
| 184 °C | CCCN1C2CCC1CC(=C(c1ccccc1)c1ccc(C(=O)N(CC)CC)cc1)C2.Cl [Example 18, N,N-Diethyl-4-[(8-propyl-8-azabicyclo[3.2.1]oct-3-ylidene)phenylmethyl]benzamide Hydrochloride [1:1]] | – |
| 210 to 212 °C | NC(=O)c1ccc(C(=C2CC3CCC(C2)N3CCc2ccccc2)c2ccccc2)cc1 (as salt: hydrochloride) [Example 29, 4-[(8-Phenethyl-8-azabicyclo[3.2.1]oct-3-ylidene)phenylmethyl]benzamide Hydrochloride [1:1].] | – |
| 128 to 132 °C | CCN(CC)C(=O)c1ccc(C(=C2CC3CCC(C2)N3)c2ccccc2)cc1.Cl [Example 2, N,N-Diethyl-4-[(8-azabicyclo[3.2.1]oct-3-ylidene)phenylmethyl]benzamide Hydrochloride [1:1]] | – |
| 210 to 211 °C | CCN(CC)C(=O)c1ccc(C(=C2CC3CCC(C2)N3CCc2ccccc2)c2ccccc2)cc1 (single isomer, unassigned; (-)) (as salt: hydrochloride) [Example 23] | – |
| 122 to 125 °C | CN(C(=O)c1cccc(C(=C2CC3CCC(C2)N3C)c2ccccc2)c1)c1cccc(F)c1.O=C(O)/C=C/C(=O)O [Example 22, N-(3-Fluorophenyl)-N-methyl-3-[(8-methyl-8-azabicyclo[3.2.1]oct-3-ylidene)phenylmethyl]benzamide Fumarate [1:1]] | – |
| 296 to 298 °C (dec.) | CCNC(=O)c1ccc(C(=C2CC3CCC(C2)N3CCc2ccccc2)c2ccccc2)cc1 (as salt: HCl) [Example 26, N-Ethyl-4-[(8-phenethyl-8-azabicyclo[3.2.1]oct-3-ylidene)phenylmethyl]benzamide] | – |
| 211 to 212 °C | CCN(CC)C(=O)c1ccc(C(=C2CC3CCC(C2)N3CCc2ccccc2)c2ccccc2)cc1 (single isomer, unassigned; (+)) (as salt: hydrochloride) [Example 24] | – |

| Structure (SMILES) | melting point | percent inhibition of abdominal constriction response (% analgesia) [1] [%] |
| --- | --- | --- |
| CCN(CC)C(=O)c1ccc(C(=C2CC3CCC(C2)N3C)c2ccccc2)cc1.Cl [Example 1, N,N-Diethyl-4-[(8-methyl-8-azabicyclo[3.2.1]oct-3-ylidene)phenylmethyl]benzamide Hydrochloride [1:1]] | 145 to 147 °C | 87 |
